Assay in all cases: DTP human tumour cell line panel, 48 h
For test [1], the system named is SK-OV-3 ovarian.
The subject of test [2] is SK-MEL-28 melanoma.
Test [3] relates to RPMI-8226 leukemia.
Test [4] deals with ACHN renal.
Test [5] has as its system SR leukemia.
In test [6] the test system is TK-10 renal.
The subject of test [7] is OVCAR-3 ovarian.
Test [8] relates to K-562 leukemia.
Test [9] has as its system HCC-2998 colon.
In test [10] the test system is NCI-H522 lung.

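Where inhibition never reached the appropriate level, the endpoint shown equals the highest concentration tested. Otherwise, values were interpolated linearly from a five-concentration, 48-hour dose response in 96-well plates. GI50: concentration for 50% inhibition of growth. TGI is the concentration that stops growth completely.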

For `COc1ccc2cc(C(=O)/C=C/c3cc(OC)c(OC)c(OC)c3)ccc2c1`, the GI50 in test [1] is 12.5 µM; in test [2], 3.91 µM; in test [3] it was 6.84 µM; in test [4], 7.17 µM; in test [5] it was 1.32 µM; in [6], 9.61 µM. Moreover, the values for the GI50 in test [7] and in [8] were 5.86 µM and 2.49 µM, respectively. Besides, the TGI in [1] is 46.4 µM; in test [2], 13.8 µM; in test [3], > 50 µM; in test [4], 18.2 µM; in test [5], > 50 µM; in test [6] it was 31.4 µM. Further, the TGI in test [7] and in test [8] was > 50 µM each time.
Regarding `ClCc1cccc(Cn2cnc3c(Cl)ncnc32)c1`, the GI50 in test [1] is 3.31 µM; in test [9] it was 0.407 µM; in [2], 2.23 µM; in test [3], 3.82 µM; in test [4], 2.08 µM; in [6], 4.59 µM. Also, the GI50 in [7] is 1.63 µM; in test [8] it was 3.56 µM; in [10], 18.6 µM. Moreover, the TGI in [1] was determined as 10.6 µM; in [9], 1.75 µM; in test [2] it was 5.69 µM; in test [3], 16.1 µM; in [4], 4.09 µM; in [6], 16.1 µM. Moreover, the TGI is 3.05 µM in test [7], 15.2 µM in test [8] and 65.4 µM in test [10].
For the compound `Cc1ccc(-[n+]2c3cc(N)c(C)cc3nc3cc(C)c(Nc4ccccc4)cc32)cc1`, the GI50 was 0.258 µM in [1]; 0.566 µM in test [9]; 0.266 µM in test [2]; 0.107 µM in test [4]; 0.148 µM in [6]; 0.0393 µM in [8]. For the same compound, the GI50 in [10] is 0.249 µM. Also, the TGI in test [1] is 1.62 µM; in [9], 1.82 µM; in [2], 1.33 µM; in test [4] it was 1.17 µM; in [6], 1.04 µM; in [8], 2.69 µM. Also, in test [10], the TGI is 0.788 µM.
Turning to `COc1cc2c(cc1OC)C(=O)/C(=C/c1cccc(OCC(=O)c3ccccc3)c1)C2`, the GI50 in test [1] is 99.2 µM; in test [9], 73.1 µM; in test [2], 58.4 µM; in test [3] it was 1.4 µM; in test [4] it was 26.7 µM; in [6], 57.8 µM. Further, the GI50 was 17.1 µM in test [7], 3.11 µM in test [8] and 4.6 µM in [10]. The TGI in [1] is > 100 µM; in test [9], > 100 µM; in [2], > 100 µM; in test [3], 3.9 µM; in test [4], > 100 µM; in test [6], > 100 µM. Further, the TGI in [7] was > 100 µM; in test [8] it was > 100 µM; in test [10] it was 50.5 µM.
Turning to `CCOc1ccccc1NC(=O)C(=O)CC(=O)c1c(C)n([O-])c2ccccc2[n+]1=O`, the TGI in test [1], in test [9], in test [2], in [3], in test [4] and in test [6] was > 100 µM throughout. Besides, the TGI in [7] is 75.8 µM; in [8], > 100 µM; in test [10], > 100 µM.
`O=C1C(=O)N(C(=O)c2ccc(Cl)c(Cl)c2)c2ccccc21`: the TGI in [1], in [2], in [3], in [4], in test [5] and in test [6] was > 100 µM each time. For the same compound, the TGI in [7] and in test [8] was > 100 µM each time.
`Cn1c2c(c3ccccc31)CCN(CCCCN1CCc3c(n(C)c4ccccc34)C1=O)C2`: the TGI in test [1], in test [2], in test [3], in test [4], in test [6] and in [7] was > 100 µM each time. For the same compound, the TGI in test [8] and in [10] was > 100 µM throughout.
Turning to `C=C1C(=O)O[C@H]2[C@H]1CC/C(Cn1cc(CNC(=O)Cc3cn(C(=O)c4ccc(Cl)cc4)c4ccc(OC)cc34)nn1)=C\CC[C@@]1(C)O[C@@H]21`, the GI50 was 16.1 µM in [1]; 1.62 µM in [2]; 1.59 µM in test [3]; 1.92 µM in [4]; 1.77 µM in test [6]; 1.61 µM in test [7]. In addition, the TGI in test [1] was 32.9 µM; in test [2] it was 3.07 µM; in [3] it was 5.21 µM; in [4], 3.71 µM; in test [6] it was 3.24 µM; in test [7] it was 3.19 µM.
For the compound `COc1ccc(-c2nc3sc(C)cn3c2/C=C/C(=O)c2cc(OC)c(OC)c(OC)c2)cc1`, the GI50 in test [1] is 4.19 µM; in [9], 3.71 µM; in [4] it was 4.13 µM; in test [6] it was 5.55 µM; in test [7] it was 2.34 µM; in [8], 3.13 µM. In test [10], the GI50 is 0.88 µM. For the same compound, the TGI was > 100 µM in [1]; 7.66 µM in test [9]; > 100 µM in test [4]; > 100 µM in [6]; 5.83 µM in test [7]; > 100 µM in test [8]. Besides, in [10], the TGI is 3.14 µM.
Turning to `Cc1cc2c(c(C#N)c1C)NC(=O)CCC2=O`, the total growth inhibition concentration (TGI) in [9], in test [2], in [3], in [4], in test [5] and in test [7] was > 100 µM each time. The TGI in test [8] is > 100 µM.
For `O=C(c1ccccc1)C(c1ccccc1)C1(O)C(=O)Nc2c(Cl)cc(Cl)cc21` (centres undefined), the TGI in test [1] came to 70.1 µM; in test [9], 33.8 µM; in test [2], 34.1 µM; in test [3], 38.8 µM; in [4], 33.1 µM; in test [6] it was 41.2 µM. Also, the values for the TGI in test [7], in test [8] and in test [10] were > 100 µM, 50.3 µM and 34.1 µM, respectively.
Turning to `COc1cc(OC)c([C@@H]2OC(=O)C3C2C(=O)O[C@H]3c2cc(OC)c(OC)cc2OC)cc1OC` (some centres undefined), the TGI in [1], in [9], in test [2], in test [3], in test [4] and in test [5] was > 100 µM each time. For the same compound, the TGI in test [7] and in test [8] was > 100 µM in each case.
With `CCC[CH2][Sn-]([CH2]CCC)([CH2]CCC)[O]c1cc(Cl)c(Cl)cc1Cl`, the GI50 in test [1] was 0.15 µM; in test [9], 0.176 µM; in test [2] it was 0.167 µM; in test [3] it was 0.137 µM; in test [4], 0.19 µM; in [6], 0.287 µM. Besides, the concentration for 50% growth inhibition (GI50) in [7] was 0.176 µM; in [8], 0.165 µM. For the same compound, the TGI is 0.379 µM in [1]; 0.334 µM in [9]; 0.365 µM in [2]; 0.853 µM in test [3]; 0.339 µM in [4]; 0.957 µM in test [6]. The TGI turned out to be 0.365 µM in test [7] and 0.411 µM in test [8].
For `CCOC(=O)[C@@]1(C)C=C2O[C@@H]3OC4(CCCCC4)O[C@@H]3C2=C2C(O)=CC=C(O)[C@]21C(=O)OC`, the TGI in [1], in test [9], in test [2], in [3], in [4] and in [6] was > 68 µM throughout. Besides, the TGI in [7], in test [8] and in test [10] was > 68 µM throughout.
`CNC(P(=O)([O-])[O-])P(=O)([O-])[O-].N.N.[Pt+2]`: the GI50 in test [9], in test [2], in [6], in [7] and in test [10] was > 100 µM each time. The TGI in test [9], in test [2], in test [6], in [7] and in test [10] was > 100 µM each time.
For `COc1ccc(Cl)cc1Nc1nc(C(F)(F)F)ccc1C(=O)N/N=C/c1c(Cl)cccc1Cl`, the GI50 in test [1] was 7.67 µM; in test [9] it was 5.37 µM; in [2] it was > 100 µM; in test [4] it was 8.01 µM; in test [6], 6.32 µM; in [7], 1.59 µM. For the same compound, the GI50 in test [8] is 3.34 µM; in test [10], 13.3 µM. Moreover, the TGI is > 100 µM in [1]; > 100 µM in test [9]; > 100 µM in test [2]; > 100 µM in test [4]; 50.8 µM in test [6]; 4.32 µM in [7]. Also, the TGI is 32.5 µM in [8] and > 100 µM in [10].
With `CC(=O)n1c(COS(C)(=O)=O)nc2ccccc21`, the TGI in test [9], in test [2], in [4], in [6], in test [7] and in test [10] was > 100 µM in each case.
Regarding `CC(=O)O/C=C(/C=C/OC(C)=O)C(C/C=C(\C)C#CC=C(C)C)OC(C)=O` (centres undefined), the TGI in test [1] was > 100 µM; in test [9], > 100 µM; in [3], > 100 µM; in test [4], > 100 µM; in test [6], > 100 µM; in test [7] it was 68.6 µM. The values for the TGI in test [8] and in [10] were > 100 µM and 73.7 µM, respectively.
In the case of `COC(=O)C1CC2(CC3=C1CCCC3)OCCO2` (centres undefined), the TGI in [1], in [9], in test [2], in test [3], in test [6] and in test [7] was > 100 µM each time. In addition, the TGI in test [8] and in test [10] was > 100 µM each time.
With `O=c1oc2cc(OS(=O)(=O)c3ccc(F)cc3)ccc2c2c1CCCCC2`, the GI50 was > 100 µM in test [1]; > 100 µM in [9]; > 100 µM in test [2]; 3.7 µM in test [3]; > 100 µM in test [4]; > 100 µM in test [5]. For the same compound, the GI50 in test [6] and in [7] was > 100 µM each time. Also, the TGI in test [1], in test [9], in test [2], in test [3], in [4] and in [5] was > 100 µM throughout. The TGI in [6] and in test [7] was > 100 µM throughout.
Turning to `CCOC(=O)c1c2c(n3ccc(NC(=O)CCN4CCCC4)cc13)C(=O)c1ncccc1C2=O`, the GI50 in [1] is 2.22 µM; in test [2] it was 16.1 µM; in test [3], 1.56 µM; in [4], 0.0382 µM; in test [6], 1.26 µM; in test [7], 1.48 µM. In addition, the TGI in test [1] was 23.5 µM; in test [2], 35.9 µM; in test [3], 4.65 µM; in test [4] it was 1.52 µM; in test [5] it was 1.39 µM; in [6] it was 2.61 µM. The compound also showed a TGI in test [7] of 3.12 µM.
`Nc1ccn(CCOC(=O)c2ccccc2)c(=O)n1`: the TGI in test [1], in test [2], in test [3], in test [4], in test [6] and in test [7] was > 100 µM each time. For the same compound, the TGI in test [8] and in test [10] was > 100 µM throughout.
Turning to `O=C(CNc1nncs1)NO`, the TGI in test [1], in test [9], in test [2], in [3], in [4] and in test [6] was > 100 µM in each case. The TGI in test [7], in test [8] and in test [10] was > 100 µM throughout.
Regarding `Nn1c(-c2ccccc2)nc2ccc(Br)cc2c1=O`, the TGI in test [1], in test [9], in test [2], in test [3], in [4] and in test [6] was > 100 µM in each case. Also, the TGI is 81.9 µM in test [7], > 100 µM in [8] and > 100 µM in [10].

For orientation: GI50 means the concentration giving 50% growth inhibition. In general, TGI refers to the concentration at which net growth stops. A lower TGI goes with more potent growth arrest.

These data come from PubChem BioAssay (NCI).
